Measured values published in patent US8586768B2, “Design, synthesis and functional characterization of rottlerin analogs” (priority 2009, dated 2013).
Read-outs that look alike come from different tables or passages of the source.

Tests used:
PKCδ [1] = target: T1, PKCδ (Homo sapiens, UniProt Q05655); assay: In vitro 32P phosphorylation kinase assay with histone substrate; format: biochemical; settings: for % activity change 3 μM: 3 μM compound, negative = inhibition
Method: Since PK analogs are directed against PKCδ, it was first determined whether the analogs would inhibit PKCδ enzyme activity in kinase assays. The ability of lead PK analogs to inhibit purified human recombinant PKCδ enzyme activity by 32P phosphorylation kinase assay with histone as the substrate was measured. The in vitro kinase assays were performed with human recombinant PKCδ in the presence or absence of 0.3-10 μM lead PK analogs in the presence histone substrate, [^32P]-ATP and phospholipids. The extent of histone phosphorylation was determined after separation in SDS-PAGE and by phosphoimaging. IC50 was obtained using sigmoidal dose-response curve and non-linear regressional analysis using Graphpad Prism software.
In vitro kinase assays were performed with human recombinant PKCδ in the presence or absence of 0.3-10 μM lead PK analogs in the presence histone substrate, [^32P]-ATP and phospholipids. The extent of histone phosphorylation was determined after separation in SDS-PAGE and by phosphoimaging.

N27 cells [2] = settings: 300 μM MPP+ 24 hr
Method: (§1) At the end of the treatment, cytotoxicity was measured using the Sytox cell death assay in a 96-well fluorescence microplate reader.
A second generation of rottlerin analogs was further utilized for neuroprotection studies, as shown as PK201-203 in FIG. 2.
as §1
The analogs were tested in an N27 dopaminergic cell model for their neuroprotective properties. […] At the end of the treatment, cytotoxicity was measured using the Sytox cell death assay in a 96-well fluorescence microplate reader.
Rat mesencephalic dopaminergic clonal cells (N27) were used and maintained in RPMI 1640 complete medium supplemented with 10% Fetal Bovine Serum, 1% […] and 1% Penicillin/Streptomycin in a 37° C. incubator with 5% CO2. After 4-6 days in culture, the cells were used for the experiments.
N27 cells were exposed to MPP^+ for 24 hr in the presence or absence of PK analogs in the dose range of 1-30 μM.

N27 cells [3] = assay: MPP+-induced DNA fragmentation in N27 cells; format: cell-based, rat; settings: co-treated with 3 μM
From the text: To determine whether PK analogs are neuroprotective against MPP+-induced increases in caspase-3 and DNA fragmentation, their effects on MPP+-induced increases in caspase-3 activity and DNA fragmentation, markers of apoptotic cell death, were examined. All three analogs PK101-103 protected N27 cells from MPP+-induced caspase-3 activation and DNA fragmentation. […] (**p<0.01 and ***p<0.001, compared to vehicle control; #p<0.05, ##p<0.01, compared to MPP+ treatment).

C57 black mice [4] = assay: Acute MPTP mouse model of PD, locomotor activity (VersaMax Analyzer); format: in vivo; settings: MPTP 4 x 18 mg/kg i.p.; 10 mg/kg oral gavage, 7 days
Method: (§2) Lead PK analogs protect against behavioral deficits and neurochemical loss in a preclinical MPTP-induced mouse model of PD. After characterizing the neuroprotective effect of PK analogs in cell culture models of PD, as a proof of principle, preliminary evaluation of two lead PK analogs in an acute MPTP animal model of PD were conducted. C57 black mice received 4 doses of MPTP at 18 mg/kg i.p at 2 hr interval. Oral administration of lead PK analogs (10 mg/kg body wt, oral gavage) was started 1 day before MPTP insult and continued for 7 days. 1% DMSO was used as the vehicle control. Locomotor activity was measured using the VersaMax Analyzer 1-2 days before sacrificing the mice. Mice were sacrificed after 7 days of MPTP injection. (n=5). (**p<0.01: PK analogs versus MPTP).

C57 black mice [5] = assay: Acute MPTP mouse model of PD, striatal dopamine and DOPAC; format: in vivo; settings: MPTP 4 x 18 mg/kg i.p.; 10 mg/kg oral gavage, 7 days
Method: as §2

C57 black mice [6] = assay: MPTP mouse model, tyrosine hydroxylase (TH) immunostaining of substantia nigra; format: in vivo; settings: MPTP 4 x 18 mg/kg i.p.; 10 mg/kg oral gavage, 7 days
Method: PK analogs attenuate dopaminergic neuronal cell loss induced by MPTP toxicity in mouse substantia nigra. Lead PK analogs were examined to determine whether they could protect against MPTP-induced dopaminergic neuronal loss in C57 black mice. Mice received 4 doses of MPTP at 18 mg/kg i.p. at 2 hr interval. Oral administration of PK analogs (10 mg/kg body wt, oral gavage) was continued for 7 days. Mice were sacrificed after 7 days of MPTP injections. (n=5).
Abbreviataions: M: MPTP; SNpc: substantia nigra pars compacta; SNl: substantia nigra lateralis; SNr: substantia nigra reticularis; VTA: Ventral tegmental area.

[7] = Activity of simple rottlerin analogs compared with rottlerin (test not named)
Method: Design and Synthesis of Novel Rottlerin Analogs. Since Rottlerin has proven to be a difficult target to make synthetically, analogs have been developed and tested in an attempt to localize the region of activity and improve that activity. Initially, simple analogs of Rottlerin itself, obtained from CalBioChem (La Jolla, Calif., Cat #557370), were prepared and analyzed. Two compounds gave important results, one representing a simplified methylene linkage present in the parent compound (PK103), and the other (PK203) came from a simple bromination of natural Rottlerin.

[8] = system: mouse primary mesencephalic neuronal cultures; assay: 3H-dopamine uptake assay after MPP+ exposure; format: cell-based; settings: 10 μM MPP+, 3 μM compound, 48 h
Method: Lead PK analogs protect against MPP^+-induced loss of TH+ neurons in primary mesencephalic cultures. To determine if lead PK analogs protect against degeneration of nigral dopaminergic neurons resulting from MPP+ neurotoxicity, mouse primary mesencephalic neuronal cultures (prepared from E16-18-day-old mice embryos) were exposed to 10 μM MPP^+ in the presence or absence of 3 μM of lead PK analogs, PK103, PK202, PK302 and parent compound rottlerin for 48 h, and then assessed the viability of dopaminergic neurons using the ^3H-dopamine uptake assay. (***p<0.005 (vehicle versus MPTP. ##p<0.01 (PK analogs versus MPTP)). Mazindol, a dopamine reuptake inhibitor, was used as a positive control for the assay.

PKCδ [9] = target: T1, PKCδ; settings: background statement; cited from earlier work
[10] = 0.3-10 μM, histone substrate, [32P]-ATP, phospholipids, read-out: IC50
[11] = co-treated with 0.3, 1 and 3 μM

T1 sequence (Q05655 whole entry): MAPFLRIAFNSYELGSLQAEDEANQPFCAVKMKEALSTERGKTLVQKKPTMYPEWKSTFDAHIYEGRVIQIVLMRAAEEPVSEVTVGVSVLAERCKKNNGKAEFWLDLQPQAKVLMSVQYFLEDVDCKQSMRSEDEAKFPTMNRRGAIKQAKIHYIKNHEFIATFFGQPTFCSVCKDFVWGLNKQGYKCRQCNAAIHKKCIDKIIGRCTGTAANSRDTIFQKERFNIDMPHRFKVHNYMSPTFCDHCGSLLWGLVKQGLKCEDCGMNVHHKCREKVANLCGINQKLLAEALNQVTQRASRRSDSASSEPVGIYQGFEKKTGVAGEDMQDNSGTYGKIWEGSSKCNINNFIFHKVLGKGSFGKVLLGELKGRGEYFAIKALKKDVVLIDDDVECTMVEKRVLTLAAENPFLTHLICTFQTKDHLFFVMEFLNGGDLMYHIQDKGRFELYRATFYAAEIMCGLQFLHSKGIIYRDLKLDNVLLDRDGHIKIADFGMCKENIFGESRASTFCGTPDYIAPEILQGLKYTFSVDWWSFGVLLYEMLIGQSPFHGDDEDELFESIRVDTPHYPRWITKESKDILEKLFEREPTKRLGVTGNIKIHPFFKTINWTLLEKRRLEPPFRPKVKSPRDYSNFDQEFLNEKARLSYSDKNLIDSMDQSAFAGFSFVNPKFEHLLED

Oc1cc(O)c(Cc2c(O)cc(O)cc2O)c(O)c1 [PK103]
% activity change 3 μM (PKCδ [1]): −65% | IC50 (PKCδ [1]; [10]): 5.98 µM | blockage of MPP+-induced cytotoxicity (N27 cells [2]; co-treated with 3 μM): significant blockage | blockage of MPP+-induced DNA fragmentation (N27 cells [3]): significant blockage | horizontal locomotor deficits (C57 black mice [4]): significantly improved | vertical locomotor deficits (C57 black mice [4]): significantly improved | striatal DOPAC depletion (C57 black mice [5]): attenuated | striatal dopamine depletion (C57 black mice [5]): attenuated | protection against MPTP-induced nigral dopaminergic degeneration (TH immunostaining) (C57 black mice [6]): significant protection | activity compared with Rottlerin [7]: less activity than Rottlerin

CC(=O)c1c(O)c(C)c(O)c(Cc2c(O)c3c(c4c2OC(c2ccccc2)CC4=O)OC(C)(C)C=C3)c1O (centres unmarked) [PK202]
% activity change 3 μM (PKCδ [1]): −67% | IC50 (PKCδ [1]; [10]): 0.97 µM | relative potency against MPP+-induced cytotoxic cell death within the generation (N27 cells [2]): most potent inhibitor | blockage of MPP+-induced cytotoxicity (N27 cells [2]; [11]): significant blockage | horizontal locomotor deficits (C57 black mice [4]): significantly improved | vertical locomotor deficits (C57 black mice [4]): significantly improved | striatal DOPAC depletion (C57 black mice [5]): attenuated | striatal dopamine depletion (C57 black mice [5]): attenuated | protection against MPTP-induced nigral dopaminergic degeneration (TH immunostaining) (C57 black mice [6]): significant protection

CC1(C)C=Cc2c(O)cc(O)c(C(=O)/C=C/c3ccccc3)c2O1 [PK302]
% activity change 3 μM (PKCδ [1]): −73% | IC50 (PKCδ [1]; [10]): 1.99 µM | relative potency against MPP+-induced cytotoxic cell death within the generation (N27 cells [2]): more potent inhibitors than PK301 | blockage of MPP+-induced cytotoxicity (N27 cells [2]; [11]): significant blockage | horizontal locomotor deficits (C57 black mice [4]): significantly improved | vertical locomotor deficits (C57 black mice [4]): significantly improved | striatal DOPAC depletion (C57 black mice [5]): attenuated | striatal dopamine depletion (C57 black mice [5]): attenuated | protection against MPTP-induced nigral dopaminergic degeneration (TH immunostaining) (C57 black mice [6]): significant protection

CC(=O)c1c(O)c(C)c(O)c(Cc2c(O)c3c(c(C(=O)/C=C/c4ccccc4)c2O)OC(C)(C)C=C3)c1O [Rottlerin, (E)-1-[6-[(3-acetyl-2,4,6-trihydroxy-5-methylphenyl)methyl]-5,7-dihydroxy-2,2-dimethylchromen-8-yl]-3-phenylprop-2-en-1-one]
IC50 (PKCδ [1]): 13.6 µM | % activity change 3 μM (PKCδ [1]): −40% | protection against MPP+-induced loss of dopaminergic neurons (dopamine uptake) [8]: protected | IC50 (PKCδ [9]): 3 to 6 µM
